Assay results as given in PubChem BioAssay AID248 (DTP/NCI, 2004).
Values joined by “and” are separate entries in the source; they are usually repeats but may differ in a detail not shown here. Identical values can stand only once. Toxic doses and inconclusive results are not listed.

Test system: L1210 leukemia ip in BDF1 mice, survival T/C
Assay: NCI In Vivo Anticancer Drug Screen. Data for tumor model L1210 Leukemia (intraperitoneal) in B6D2F1 (BDF1) mice
Conditions: endpoint: mean survival time, higher = longer survival
How it was run: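 Ratio derived from survival: compound-dosed mice over vehicle-dosed mice, all bearing a transplantable tumor.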

[1] = dose: 100.0 mg/kg/injection, schedule: Q04DX003 (ip), vehicle: saline with Tween-80
[2] = dose: 200.0 mg/kg/injection, schedule: Q04DX003 (ip), vehicle: saline with Tween-80
[3] = dose: 100.0 mg/kg/injection, schedule: Q04DX003 (ip), vehicle: Klucel (hydroxypropylcellulose) (HPC)
[4] = dose: 200.0 mg/kg/injection, schedule: Q04DX003 (ip), vehicle: Klucel (hydroxypropylcellulose) (HPC)
[5] = dose: 400.0 mg/kg/injection, schedule: Q04DX003 (ip), vehicle: Klucel (hydroxypropylcellulose) (HPC)
[6] = dose: 100.0 mg/kg/injection, schedule: Q01DX009 (ip), vehicle: saline with Tween-80
[7] = dose: 200.0 mg/kg/injection, schedule: Q01DX009 (ip), vehicle: saline with Tween-80
[8] = dose: 400.0 mg/kg/injection, schedule: Q01DX009 (ip), vehicle: saline with Tween-80
[9] = dose: 100.0 mg/kg/injection, schedule: Q04DX002 (ip), vehicle: Klucel (hydroxypropylcellulose) (HPC)
[10] = dose: 200.0 mg/kg/injection, schedule: Q04DX002 (ip), vehicle: Klucel (hydroxypropylcellulose) (HPC)
[11] = dose: 100.0 mg/kg/injection, schedule: Q01DX001 (ip), vehicle: carboxymethylcellulose (CMC)
[12] = dose: 200.0 mg/kg/injection, schedule: Q01DX001 (ip), vehicle: carboxymethylcellulose (CMC)
[13] = dose: 400.0 mg/kg/injection, schedule: Q01DX001 (ip), vehicle: carboxymethylcellulose (CMC)
[14] = dose: 75.0 mg/kg/injection, schedule: Q04DX003 (ip), vehicle: saline

C/C(=C/C=C(c1ccccc1)c1ccccc1)C1CCC2C3CCC4CC5CCC4(C)C3(O5)C(=O)CC12C (centres undefined)
T/C (dose: 100.0 mg/kg/injection, schedule: Q04DX003 (sc), vehicle: steriod suspending solution): 96 % of control | T/C (dose: 200.0 mg/kg/injection, schedule: Q04DX003 (sc), vehicle: steriod suspending solution): 93 % of control | T/C (dose: 400.0 mg/kg/injection, schedule: Q04DX003 (sc), vehicle: steriod suspending solution): 93 % of control

O=C1c2ccccc2-c2cc(Br)c(NC(=O)C(F)(F)F)cc21
T/C [1]: 108 % of control | T/C [2]: 105 % of control | T/C (dose: 400.0 mg/kg/injection, schedule: Q04DX003 (ip), vehicle: saline with Tween-80): 100 % of control

CCOC(=O)c1c(N)sc(C)c1C
T/C [3]: 102 % of control | T/C [4]: 94 % of control | T/C [5]: 97 % of control

CS(=O)(=O)Nc1ccc(Nc2c3ccccc3nc3cc(Cl)ccc23)cc1
T/C (dose: 10.0 mg/kg/injection, schedule: Q01DX009 (sc), vehicle: saline): 118 % of control | T/C (dose: 20.0 mg/kg/injection, schedule: Q01DX009 (sc), vehicle: saline): 113 % of control | T/C (dose: 133.0 mg/kg/injection, schedule: Q04DX003 (ip), vehicle: saline with Tween-80): 176 % of control | T/C [2]: 103 % of control | T/C (dose: 300.0 mg/kg/injection, schedule: Q04DX003 (ip), vehicle: saline with Tween-80): 113 % of control

CN(C)c1ccc(/C=N/Nc2c([N+](=O)[O-])cc(C(F)(F)F)cc2[N+](=O)[O-])cc1
T/C (dose: 100.0 mg/kg/injection, schedule: Q01DX009 (ip), vehicle: gum acacia): 90 % of control | T/C (dose: 200.0 mg/kg/injection, schedule: Q01DX009 (ip), vehicle: gum acacia): 88 % of control | T/C (dose: 400.0 mg/kg/injection, schedule: Q01DX009 (ip), vehicle: gum acacia): 88 % of control

Cc1ccc(S(=O)(=O)N/N=C/C=C\C=N\NS(=O)(=O)c2ccc(C)cc2)cc1
T/C (dose: 100.0 mg/kg/injection, schedule: Q01DX009 (ip), vehicle: Klucel (hydroxypropylcellulose) (HPC)): 98 % of control | T/C (dose: 200.0 mg/kg/injection, schedule: Q01DX009 (ip), vehicle: Klucel (hydroxypropylcellulose) (HPC)): 96 % of control | T/C (dose: 400.0 mg/kg/injection, schedule: Q01DX009 (ip), vehicle: Klucel (hydroxypropylcellulose) (HPC)): 90 % of control

Cc1c(-c2ccccc2)sc(/N=C/c2cc(Br)cc(Br)c2O)c1C#N
T/C [6]: 99 % of control and 111 % of control | T/C (dose: 100.0 mg/kg/injection, schedule: Q04DX002 (ip), vehicle: saline with Tween-80): 112 % of control and 90 % of control | T/C [7]: 97 % of control and 86 % of control | T/C (dose: 200.0 mg/kg/injection, schedule: Q04DX002 (ip), vehicle: saline with Tween-80): 93 % of control and 102 % of control | T/C [8]: 94 % of control | T/C (dose: 400.0 mg/kg/injection, schedule: Q04DX002 (ip), vehicle: saline with Tween-80): 106 % of control and 107 % of control

CC(C)(C)c1ccc(C(C)(C)C)c(O)c1
T/C (dose: 25.0 mg/kg/injection, schedule: Q04DX002 (ip), vehicle: Klucel (hydroxypropylcellulose) (HPC)): 92 % of control and 90 % of control | T/C (dose: 50.0 mg/kg/injection, schedule: Q04DX002 (ip), vehicle: Klucel (hydroxypropylcellulose) (HPC)): 95 % of control and 96 % of control | T/C [9]: 92 % of control and 104 % of control | T/C [10]: 92 % of control and 86 % of control

COc1cc(C)c(Cc2cnc(N)nc2N)cc1OC
T/C [3]: 97 % of control | T/C [4]: 89 % of control

CS(=O)(=O)OC1C2CCC(C2=C(c2ccccc2)c2ccccc2)C1OS(C)(=O)=O (centres undefined)
T/C (dose: 75.0 mg/kg/injection, schedule: Q01DX001 (ip), vehicle: carboxymethylcellulose (CMC)): 93 % of control | T/C (dose: 150.0 mg/kg/injection, schedule: Q01DX001 (ip), vehicle: carboxymethylcellulose (CMC)): 101 % of control | T/C (dose: 300.0 mg/kg/injection, schedule: Q01DX001 (ip), vehicle: carboxymethylcellulose (CMC)): 91 % of control

CCCC(O)(CC)CCC
T/C [1]: 100 % of control | T/C [2]: 100 % of control

Cn1cc([N+](=O)[O-])c(=O)n(C)c1=O
T/C (dose: 50.0 mg/kg/injection, schedule: Q01DX001 (ip), vehicle: carboxymethylcellulose (CMC)): 93 % of control | T/C [11]: 98 % of control | T/C [12]: 102 % of control | T/C [13]: 104 % of control

CC/C(=N\[N+](C)(C)C)c1ccccc1
T/C (dose: 18.8 mg/kg/injection, schedule: Q04DX003 (ip), vehicle: saline): 100 % of control | T/C (dose: 37.5 mg/kg/injection, schedule: Q04DX003 (ip), vehicle: saline): 97 % of control | T/C (dose: 75.0 mg/kg/injection, schedule: Q01DX001 (ip), vehicle: saline): 100 % of control | T/C [14]: 100 % of control

COc1cc(C)c2c([N+](=O)[O-])cc([N+](=O)[O-])c(OC)c2n1
T/C (dose: 75.0 mg/kg/injection, schedule: Q01DX009 (ip), vehicle: Klucel (hydroxypropylcellulose) (HPC)): 98 % of control | T/C [3]: 106 % of control | T/C (dose: 150.0 mg/kg/injection, schedule: Q01DX009 (ip), vehicle: Klucel (hydroxypropylcellulose) (HPC)): 101 % of control | T/C [4]: 93 % of control | T/C (dose: 300.0 mg/kg/injection, schedule: Q01DX009 (ip), vehicle: Klucel (hydroxypropylcellulose) (HPC)): 95 % of control | T/C [5]: 103 % of control

CCCCC(=O)N/N=C/c1cc2c(cc1[N+](=O)[O-])OCO2 (tested in a mixture with another compound)
T/C [11]: 91 % of control | T/C [12]: 91 % of control | T/C [13]: 91 % of control

CC(=O)Nc1ccc(C(=O)NNC2=C(NNC(=O)c3ccc(NC(C)=O)cc3)C(=O)c3ccccc3C2=O)cc1
T/C [14]: 100 % of control | T/C (dose: 150.0 mg/kg/injection, schedule: Q04DX003 (ip), vehicle: saline): 91 % of control | T/C (dose: 300.0 mg/kg/injection, schedule: Q04DX003 (ip), vehicle: saline): 91 % of control

Nc1ccc(C(=O)NCC(=O)O)cc1
T/C [9]: 93 % of control | T/C [10]: 104 % of control | T/C (dose: 400.0 mg/kg/injection, schedule: Q04DX002 (ip), vehicle: Klucel (hydroxypropylcellulose) (HPC)): 100 % of control

C#CCn1c2ccccc2c2ccccc21
T/C (dose: 100.0 mg/kg/injection, schedule: Q01DX001 (ip), vehicle: saline): 97 % of control | T/C [6]: 95 % of control | T/C (dose: 200.0 mg/kg/injection, schedule: Q01DX001 (ip), vehicle: saline): 103 % of control | T/C [7]: 101 % of control | T/C (dose: 400.0 mg/kg/injection, schedule: Q01DX001 (ip), vehicle: saline): 103 % of control | T/C [8]: 96 % of control

N#Cc1cn[nH]c1N
T/C (dose: 100.0 mg/kg/injection, schedule: Q01DX001 (ip), vehicle: saline with Tween-80): 98 % of control | T/C (dose: 200.0 mg/kg/injection, schedule: Q01DX001 (ip), vehicle: saline with Tween-80): 95 % of control | T/C (dose: 400.0 mg/kg/injection, schedule: Q01DX001 (ip), vehicle: saline with Tween-80): 103 % of control

C/C=C/C1N(C)CCCN1C
T/C (dose: 25.0 mg/kg/injection, schedule: Q01DX009 (ip), vehicle: saline with Tween-80): 97 % of control | T/C (dose: 25.0 mg/kg/injection, schedule: Q04DX003 (ip), vehicle: saline with Tween-80): 102 % of control | T/C (dose: 50.0 mg/kg/injection, schedule: Q01DX009 (ip), vehicle: saline with Tween-80): 98 % of control | T/C (dose: 50.0 mg/kg/injection, schedule: Q04DX003 (ip), vehicle: saline with Tween-80): 93 % of control | T/C [1]: 91 % of control
